In ChEMBL document CHEMBL5154690, “Discovery of a tricyclic farnesoid X receptor agonist HEC96719, a clinical candidate for treatment of non-alcoholic steatohepatitis” (Eur J Med Chem, 2022):
Activity calls are given as the source filed them. The rule behind the calls is not given here.

What was measured:
[1] = Cmax in male Sprague-Dawley rat at 5 mg/kg, po measured by LC-MS/MS analysis; type: ADME, organism-based; parameters: dose 5 mg/kg, route po; settings: in vivo
Mus musculus [2] = experiment: Anti-NASH activity against high fat (HF) diet-induced nonalcoholic steatohepatitis in leptin-deficient ob/ob mouse model assessed as reduction in serum TG level at 3 mg/kg, po administered once daily from week 5 to 10; type: functional, organism-based
Estrogen receptor = target: T1, Estrogen receptor (Homo sapiens, UniProt P03372); experiment: Agonist activity at estrogen receptor alpha (unknown origin)
T1 sequence (P03372 whole entry): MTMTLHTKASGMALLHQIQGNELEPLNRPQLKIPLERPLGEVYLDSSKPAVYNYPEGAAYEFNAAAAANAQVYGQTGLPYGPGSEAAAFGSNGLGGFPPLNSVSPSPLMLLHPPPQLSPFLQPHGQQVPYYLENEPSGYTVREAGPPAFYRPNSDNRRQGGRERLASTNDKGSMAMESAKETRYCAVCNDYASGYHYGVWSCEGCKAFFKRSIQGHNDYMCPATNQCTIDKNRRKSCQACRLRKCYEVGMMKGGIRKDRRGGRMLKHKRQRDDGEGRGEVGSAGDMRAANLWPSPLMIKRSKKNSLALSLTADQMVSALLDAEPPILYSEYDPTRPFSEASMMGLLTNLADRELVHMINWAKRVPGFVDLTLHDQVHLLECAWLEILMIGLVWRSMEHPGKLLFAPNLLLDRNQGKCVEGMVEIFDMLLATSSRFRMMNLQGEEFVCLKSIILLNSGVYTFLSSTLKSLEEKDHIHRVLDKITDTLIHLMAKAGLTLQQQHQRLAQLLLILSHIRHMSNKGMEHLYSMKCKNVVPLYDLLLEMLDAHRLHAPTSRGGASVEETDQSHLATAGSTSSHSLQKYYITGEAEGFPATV

[3] = target: T2, Peroxisome proliferator-activated receptor alpha (Homo sapiens, UniProt Q07869); experiment: Agonist activity at PPARalpha (unknown origin)
T2 sequence (Q07869 whole entry): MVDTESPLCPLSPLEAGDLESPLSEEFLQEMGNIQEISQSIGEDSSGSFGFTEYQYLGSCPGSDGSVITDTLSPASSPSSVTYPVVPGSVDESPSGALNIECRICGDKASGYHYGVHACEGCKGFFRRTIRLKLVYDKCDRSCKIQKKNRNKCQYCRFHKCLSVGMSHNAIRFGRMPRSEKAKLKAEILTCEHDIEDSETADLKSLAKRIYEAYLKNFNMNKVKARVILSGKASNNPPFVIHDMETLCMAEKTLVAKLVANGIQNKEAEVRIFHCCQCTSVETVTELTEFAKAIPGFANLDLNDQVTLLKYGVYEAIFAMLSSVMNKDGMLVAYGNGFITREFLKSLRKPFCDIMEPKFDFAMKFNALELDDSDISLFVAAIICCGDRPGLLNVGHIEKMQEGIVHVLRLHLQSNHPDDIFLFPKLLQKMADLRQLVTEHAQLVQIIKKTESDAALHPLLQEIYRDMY

[4] = target: T3, Peroxisome proliferator-activated receptor gamma (Homo sapiens, UniProt P37231); experiment: Agonist activity at PPARgamma (unknown origin)
T3 sequence (P37231 whole entry): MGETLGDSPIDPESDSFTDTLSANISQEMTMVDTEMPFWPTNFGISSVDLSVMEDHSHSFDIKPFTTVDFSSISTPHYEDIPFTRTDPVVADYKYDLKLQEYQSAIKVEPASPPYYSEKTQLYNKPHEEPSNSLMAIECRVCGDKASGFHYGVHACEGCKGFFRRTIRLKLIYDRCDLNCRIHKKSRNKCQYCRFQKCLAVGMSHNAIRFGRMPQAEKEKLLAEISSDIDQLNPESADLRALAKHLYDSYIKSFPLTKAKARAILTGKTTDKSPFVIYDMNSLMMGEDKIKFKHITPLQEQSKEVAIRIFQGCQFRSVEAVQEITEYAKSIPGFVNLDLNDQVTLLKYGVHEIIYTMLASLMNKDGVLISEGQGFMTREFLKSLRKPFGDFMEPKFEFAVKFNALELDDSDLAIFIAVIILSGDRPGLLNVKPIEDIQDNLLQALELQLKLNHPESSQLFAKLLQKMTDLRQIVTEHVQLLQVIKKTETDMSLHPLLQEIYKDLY

Mus musculus [5] = experiment: Anti-NASH activity in western style diet-induced nonalcoholic steatohepatitis model of male C57BL/6 mouse assessed as reduction in liver fibrosis at 1 mg/kg, po administered once daily from week 32 to 44; type: functional, organism-based
Mus musculus [6] = experiment: Antifibrotic activity in C57BL/6 mouse model of CCI4-induced liver fibrosis assessed as reduction in fibrosis area at 0.1 to 1 mg/kg, po administered once daily for 4 weeks; type: functional, organism-based; settings: dose 0.1-1 mg/kg
[7] = Half-life in male Beagle dog at 1 mg/kg, iv measured by LC-MS/MS analysis; type: ADME, organism-based, Canis lupus familiaris; settings: in vivo
[8] = Drug metabolism in bile of Sprague-Dawley rat assessed as production of toxic metabolites at 4.5 mg/kg, po administered as C14-lableled compound with single dose; type: ADME, organism-based; settings: in vivo
[9] = Drug recovery in brain of male Sprague-Dawley rat at 4.5 mg/kg, po administered as C14-lableled compound and assessed as radioactivity and measured at 0.25 hrs; type: ADME, organism-based; settings: in vivo, BLD = below limit of detection
[10] = Drug recovery in ileum of male Sprague-Dawley rat at 4.5 mg/kg, po administered as C14-lableled compound and assessed as radioactivity and measured at 0.25 hrs; type: ADME, organism-based; settings: in vivo
[11] = Drug recovery in skin of male Sprague-Dawley rat at 4.5 mg/kg, po administered as C14-lableled compound and assessed as radioactivity and measured at 0.25 hrs; type: ADME, organism-based, Skin of body; settings: in vivo
[12] = Drug recovery in plasma of male Sprague-Dawley rat at 4.5 mg/kg, po administered as C14-lableled compound and assessed as radioactivity and measured at 0.25 hrs; type: ADME, organism-based; settings: in vivo
[13] = Drug recovery in skin of male Sprague-Dawley rat at 4.5 mg/kg, po administered as C14-lableled compound and assessed as radioactivity and measured at 1 hr; type: ADME, organism-based, Skin of body; settings: in vivo
[14] = Drug recovery in brain of male Sprague-Dawley rat at 4.5 mg/kg, po administered as C14-lableled compound and assessed as radioactivity and measured at 6 hrs; type: ADME, organism-based; settings: in vivo, BLD = below limit of detection
[15] = Drug recovery in pancreas of male Sprague-Dawley rat at 4.5 mg/kg, po administered as C14-lableled compound and assessed as radioactivity and measured at 6 hrs; type: ADME, organism-based; settings: in vivo, BLD = below limit of detection
[16] = Drug recovery in lung of male Sprague-Dawley rat at 4.5 mg/kg, po administered as C14-lableled compound and assessed as radioactivity and measured at 6 hrs; type: ADME, organism-based; settings: in vivo
[17] = Drug recovery in brain of male Sprague-Dawley rat at 4.5 mg/kg, po administered as C14-lableled compound and assessed as radioactivity and measured at 24 hrs; type: ADME, organism-based; settings: in vivo, BLD = below limit of detection
[18] = Drug recovery in kidney of male Sprague-Dawley rat at 4.5 mg/kg, po administered as C14-lableled compound and assessed as radioactivity and measured at 24 hrs; type: ADME, organism-based; settings: in vivo
[19] = Drug recovery in stomach of male Sprague-Dawley rat at 4.5 mg/kg, po administered as C14-lableled compound and assessed as radioactivity and measured at 24 hrs; type: ADME, organism-based; settings: in vivo
[20] = Mutagenecity in Salmonella typhimurium TA102 measured by Ames test; type: toxicity; settings: salmonella enterica subsp. enterica serovar typhimurium

## O=C(O)c1ccc2c(c1)Oc1ccc(OCc3c(-c4c(Cl)cccc4Cl)noc3C3CC3)nc1C1(CC1)C2
[1]
  Cmax: 1090 ng/mL
Mus musculus [2]
  Activity: Active
Estrogen receptor
  EC50: > 10 µM
[3]
  EC50: > 10 µM
[4]
  EC50: > 10 µM
Mus musculus [5]
  Activity: Active
Mus musculus [6]
  Activity: Active
[7]
  half-life: 2.97 h
[8]
  Drug metabolism: Metabolite_Notdetected
[9]
  Drug recovery: Bld
[10]
  Drug recovery: 606 ngequiv/g
[11]
  Drug recovery: 33.3 ngequiv/g
[12]
  Drug recovery: 229 ngequiv/g
[13]
  Drug recovery: 117 ngequiv/g
[14]
  Drug recovery: Bld
[15]
  Drug recovery: Bld
[16]
  Drug recovery: 63.4 ngequiv/g
[17]
  Drug recovery: Bld
[18]
  Drug recovery: 74.4 ngequiv/g
[19]
  Drug recovery: 108 ngequiv/g
[20]
  Activity: Non-Toxic
